# Measured values taken from US20080090728A1, “Method for Improving Plant Growth” (BAYER CROPSCIENCE AG, priority 2004, published 2008).
# Key:
# [1] = tested on: insect infestation; experiment: Field trial, bonitation of insect infestation (defoliation by insect damage) on Eucalyptus seedlings; assay type: in vivo
# Excerpt: (§1) A synergistic effect is always present when the growth effect of the combinations according to the invention exceed the total of the activities of the active compounds when applied individually. The expected activity for a given combination of two active compounds can be calculated as follows (cf. Colby, S.R., “Calculating Synergistic and Antagonistic Responses of Herbicide Combinations”, Weeds 15, (1967), 20-22): If • X is the growth effect when applying one compound selected from the class of agonists and antagonists of the nicotinic acetylcholine receptors at an application rate of m g/ha, • Y is the growth effect when applying fertilizer at an application rate of n g/ha and • E is the efficacy when applying the combination of A and B at an application rate of m and n g/ha, then [formula] The efficacy is calculated in %. 0% is an efficacy which corresponds to that of the control. If the actual growth effect exceeds the calculated value, then the activity of the combination is super additive, i.e. a synergistic effect exists. In this case, the efficacy which was actually observed must be greater than the value for the expected efficacy (E) calculated from the abovementioned formula. The trial was established using a Latin square design (4 treatments with 4 replications each) with 49 ligneous trees per plot for a total of 784 trees in the trial. Trees: Eucalyptus seedlings (E. globulus) The four treatments used were 1) control (nil treatment) 2) fertilizer only 3) insecticide (i.e. imidacloprid) only 4) insecticide (i.e. imidacloprid) plus fertilizer Bonitation of insect infestation and measurement of the height of the treated trees was done 7 months and 12 months after the trial has been started (start of trial: August 2003, bonitations: March 2004 and August 2004) All results are statistically evaluated having a significance level of 5% . Besides the mean value comparison the Fisher's PLSD test has been applied.
# [2] = tested on: Eucalyptus seedlings (E. globulus); experiment: Field trial, height of treated Eucalyptus seedlings (growth effect); assay type: in vivo; settings: for Average height (cm): E. globulus seedlings
# Excerpt: as §1
# [3] = Bonitation August 2004, 12 months after start of trial
# [4] = Bonitation March 2004, 7 months after start of trial
smiles,measurement,setting,value
"O=[N+]([O-])NC1=NCCN1Cc1ccc(Cl)nc1 [imidacloprid only, Imidacloprid]",Average defoliation by insect damage (%),[1]; [3],60%
same,Efficacy according to Abbott (%),[1]; [3],40%
same,Average defoliation by insect damage (%),[1]; [4],18%
same,Efficacy according to Abbott (%),[1]; [4],71%
same,Height of tree (% of control),[2]; [3],104 % of control
same,Average height (cm),[2]; [3],125 cm
same,Height of tree (% of control),[2]; [4],115 % of control
same,Average height (cm),[2]; [4],86 cm
